Target: T1, DYRK1A (Homo sapiens, UniProt Q13627)
T1 construct: purchased Thermo Fisher Scientific (Life Technologies) SelectScreen
Test: SelectScreen Z'LYTE
Type: biochemical
How it was run: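 SelectScreen broad panel; activity (Z'LYTE, Adapta) plus binding formats. ATP: Km app for CSF1R Z'LYTE; 10 for CAMK1 Adapta. Readout = % per kinase.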

In the case of `CN(C(=O)CN1CCOCC1)c1ccc2sc3c(-c4cccc5c(=O)cc(N6CC7CCC(C6)O7)oc45)cccc3c2c1` [NU5455], the inhibition at 1 µM was 6.4%.
